Series [1] in a line: Adjuvant arthritis (Freund's complete adjuvant) in the rat: paw volume, radiography, histology. The class given is in vivo, rat (albino Sprague Dawley). Particulars: for Volume increase in the oedema after 15 days, left paw / Volume increase in the oedema after 15 days, right paw: 20 mg/kg/os; for Volume increase in the oedema after 15 days, left paw: left (adjuvant-injected) rear paw, control 252 ± 26; for Volume increase in the oedema after 15 days, right paw: right rear paw, control 77 ± 29. The protocol:
The test evaluates the effect of the compounds anthraquinone-2,6-disulfonicacid and N,N'-diethylanthraquinone-2,6-disulfonamide on rheumatoid arthritis in the rat induced by administration of complete Freund's adjuvant. Diacetylrhein was used as control.
For the test, albino Sprague Dawley rats weighing 200±10 g, were subdivided into four groups of six animals each. All of the compounds were administered orally at a dosage of 20 mg/kg. Arthritis was induced administering all the animals, in the left rear paw, with 5 mg of Freund's complete adjuvant suspended in 0.05 ml of paraffin oil (prior to the treatment, the paw volume of both rear paws was measured). The treatment with the tested products started 5 days after the arthritis induction and was carried out for ten days. Al the end of this time, the animals were killed to effect the analysis of the following evaluation parameters: measurement of the volume of both left and right rear paws; Rx in lateral and antero-posterior position of the tibio-tarsal articulation of the left paw; histology evaluation of the articulation of both left and right rear paws.

The next series deals with T1, human cathepsin L (Homo sapiens, UniProt P07711).
T1 construct: purchased Calbiochem
T1 sequence (P07711 114-288 limits assumed): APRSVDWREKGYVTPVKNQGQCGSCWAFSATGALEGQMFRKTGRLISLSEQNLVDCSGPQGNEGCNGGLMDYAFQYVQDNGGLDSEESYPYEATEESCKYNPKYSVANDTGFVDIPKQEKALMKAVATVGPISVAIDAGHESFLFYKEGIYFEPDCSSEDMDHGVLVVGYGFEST
T1 sequence (P07711 292-333 limits assumed): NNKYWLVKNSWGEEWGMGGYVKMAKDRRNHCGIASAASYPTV
The series can be described thus: Effects on human cathepsin L enzymatic activity. It counts as biochemical. The protocol: (§1) Effects on human cathepsin B and L enzymatic activity
(§2) The anthraquinone monosulfonated and disulfonated compounds were dissolved in distilled water whereas the derivatives thereof were dissolved in dimethylsulfoxide. The concentration of the tested product was added to the reaction mixture in a volume of 100 μl.
(§3) Composition of the reaction mixture: 0.005M acetate buffer pH 6.0+2 mM cysteine+1 mM EDTA; Enzyme 1 U/ml (cathepsin B or L) (Calbiochem); substrate 0.2 mM Z-Phe-Arg-AMC (Novabiochem) final reaction volume 2 ml; temperature 25° C.; observation time for cathepsin B: 2 minutes; for L: 8 minutes. This is a fluorimetric determination wherein the excitation wavelength was 380 nm, the emission one being instead 460 nm. Fluorescence was read by means of a Perkin-Elmer spectrophotometer mod. LS-3B.

The next series has as its target T2, human cathepsin B (Homo sapiens, UniProt P07858).
T2 construct: purchased Calbiochem
The series can be described thus: Effects on human cathepsin B enzymatic activity. The class given is biochemical. The protocol:
as §1, §2, §3
Anthraquinone-2,6-disulfonic acid: 1-5-10 μM
Anthraquinone-1,5-disulfonic acid: 1-5-10 μM
N,N'-(p-Ethoxyphenyl)-2,6-anthraquinone-disulfonamide: 1-10 μM.

Series [2] relates to copper "scavenging" of superoxide anion produced by the hypoxanthine/xanthine oxidase system. The series is described as follows: Copper "scavenging" effect (superoxide anion from hypoxanthine/xanthine oxidase system, cytochrome C). It counts as biochemical. Particulars: for % Reduction (effect on copper "scavenging" action): hypoxanthine/xanthine oxidase, cytochrome c.
Source text: The study involves the production of superoxide anion by means of the hypoxanthine/xanthine oxidase system and the target is the reduction in cytochrome C iron content. […] Copper chelants inhibit such a "scavenging" effect.
In series [3] the test system is Chinese hamster ovary (CHO) cells. The series can be described thus: Test of induction of chromosomal aberrations. Particulars: for Metaphases with aberrations: + S-9; for Aberrations complex (C) / Aberrations simple (S) / Aberrations S + C: 100 metaphases. It counts as cell-based. The protocol: The clastogenetic effect of rhein and of 2,6-anthraquinonedisulfonic acid, was evaluated using the test of the induction of chromosomal aberrations in cell cultures of chinese hamster ovary (CHO). In this test, the cell line was treated with the tested substances and with suitable controls, in the presence of a metabolic activation system for four hours. After that, the cell in growth exponential phase were treated with colchicine (Colcemid^R) for 90 minutes, so as to obtain a significant number of cells in metaphase and to recover them for the preparation of the chromosome suspension. As the positive standard, cyclophosphamide was used (1-5-10-12.5-25 μg/ml).
The toxicity of the tested compounds was evaluated by means of the assay of the efficiency of plating, treating the cells for four hours, then seeding them at a concentration of 200 cells/5 ml of fresh culture medium.
On the ground of the results obtained by means of this test, dosages were selected for the treatment in the test of induction of chromosomal aberrations, so as not to exceed, with the highest dosage, 50% toxicity levels.
The chromosomal aberrations were recorded describing the type of structural damage. The numeric aberrations and gaps were discarded. Metaphases showing a good chromosomal opening, a good staining and an acceptable chromosome number (20±2) were selected. For statistical evaluations of the results, the quadratic Chi test was used.

The conditions of series [4]: background art; cited from earlier work.
The test system of another series is ceruloplasmin. Particulars: acute phase of arthritis inflammation; background art; cited from earlier work.
For series [5] the following is noted: background art (U.S. Pat. No. 4,244,968); cited from earlier work.
[6] abbreviates: 20 mg/kg orally, ten days, right paw.
[7] abbreviates: M (mean of experiments 1-3), read-out: % Inhibition.
Setting [8] is: experiment n. 1, read-out: % Inhibition.
Setting [9] is: experiment n. 2, read-out: % Inhibition.
[10] abbreviates: experiment n. 3, read-out: % Inhibition.

Each structure is given as a SMILES string. Like-named read-outs stand apart in the source and are kept apart here.

This is an account of results in patent US5856358A, “Mono- and disulfo-substituted anthraquinones and their use for the treatment of bone matrix disorders” (priority 1995, dated 1999).

For the compound `CCNS(=O)(=O)c1ccc2c(c1)C(=O)c1ccc(S(=O)(=O)NCC)cc1C2=O` [N,N'-Diethyl-2,6-anthraquinonedisulfonamide], in series [1] (20 mg/kg orally, ten days), the “inhibition (reduction) of the increase in the volume of the left rear paw” value (“inhibition (reduction) of the increase” below) was 21.4%. Moreover, the “inhibition of the increase in the volume of the right paw” value in series [1] (setting [6]) was found to be 62.3%. In series [1], the “Volume increase in the oedema after 15 days, left paw” value (“Volume increase … left paw” below) is 198 ± 31 and the “Volume increase in the oedema after 15 days, right paw” value (“Volume increase … right paw” below) amounted to 29 ± 12.

Turning to `CCOc1ccc(NS(=O)(=O)c2ccc3c(c2)C(=O)c2ccc(S(=O)(=O)Nc4ccc(OCC)cc4)cc2C3=O)cc1` [N,N'-(p-Ethoxyphenyl)-2,6-anthraquinonedisulfonamide], the inhibition at 1 µM at human cathepsin L (M (mean of tests 1-3)) was determined as 8.8%; at human cathepsin L (test n. 1) it was 8.5%; against human cathepsin L (test n. 2) it was 7.1%; against human cathepsin L (test n. 3) it was 10.9%; on human cathepsin B (setting [7]), 19%; at human cathepsin B (setting [8]), 23.7%. The figures for the inhibition at 1 µM at human cathepsin B (setting [9]) and on human cathepsin B (setting [10]) were 18.6% and 14.8%, respectively. In addition, the inhibition at 10 µM is 55.2% at human cathepsin L (M (mean of tests 1-3)); 53.6% at human cathepsin L (test n. 1); 48.1% against human cathepsin L (test n. 2); 63.8% against human cathepsin L (test n. 3); 80.2% on human cathepsin B (setting [7]); 76.6% on human cathepsin B (setting [8]). Besides, the inhibition at 10 µM at human cathepsin B (setting [9]) stood at 80.6%; at human cathepsin B (setting [10]), 83.4%.

Consider `O=C1c2ccccc2C(=O)c2c1cccc2S(=O)(=O)O` [1-AQ, 1-anthraquinonesulfonic acid], for which, in series [2], the “inhibition of copper "scavenging" effect (in words)” value was “nearly inactive” and the “% Reduction (effect on copper "scavenging" action)” value (“% Reduction” for short) turned out to be 3%.

On to `O=P1(N(CCCl)CCCl)NCCCO1` (centres unmarked) [CPS, Cyclophosphamide], for which the Metaphases with aberrations in series [3] (1 μg/ml, 100 total metaphases, N.S.) was determined as 10; in series [3] (5 μg/ml, 100 total metaphases, P < 0.001), 25; in series [3] (10 μg/ml, 32 total metaphases, P < 0.001, control 13 of 220), 12. Also, the “Aberrations complex (C)” value amounted to 44 in series [3] (CPS 12.5 μg/ml) and 87 in series [3] (CPS 25 μg/ml, control 4 of 400). Besides, the “Aberrations simple (S)” value in series [3] (CPS 12.5 μg/ml) was 0; in series [3] (CPS 25 μg/ml, control 8 of 400), 0. The “Aberrations S + C” value is recorded as 44 in series [3] (CPS 12.5 μg/ml, P < 0.001) and 87 in series [3] (CPS 25 μg/ml, P < 0.001, control 12 of 400).

With `CC(=O)Oc1cccc2c1C(=O)c1c(OC(C)=O)cc(C(=O)O)cc1C2=O` [Diacetylrhein, diacetylrhein, reference compound], the copper chelation result in series [4] is recorded as “copper chelating agent”. The “inhibition (reduction) of the increase” value in series [1] (20 mg/kg orally, ten days) is 8.3%. For the same compound, the “effect on the increase in the volume of the right paw (in words)” value in series [1] (setting [6]) is recorded as “complete lack in activity”. Further, in series [1] (20 mg/kg orally, tibio-tarsal articulation), the “formation of fibrous tissue in the articulation (histological examination)” value is recorded as “remarkably present”. Besides, in series [1], the “Volume increase … left paw” value turned out to be 231 ± 22 and the “Volume increase … right paw” value was determined as 92 ± 30. For the same compound, in the series on ceruloplasmin, the “inhibition of the formation of ceruloplasmin” value was “inhibits the formation of ceruloplasmin”. Besides, the calcium chelation entry in series [5] is listed as “calcium chelating agent”.

Regarding `O=C1c2ccccc2C(=O)c2cc(S(=O)(=O)O)ccc21` [2-AQ, 2-anthraquinonesulfonic acid], in series [2], the “inhibition of copper "scavenging" effect (in words)” value is “nearly inactive” and the “% Reduction” value is listed as 5%.

Consider `O=C1c2ccc(S(=O)(=O)O)cc2C(=O)c2ccc(S(=O)(=O)O)cc21` [2,6-anthraquinonedisulfonic acid], for which the “inhibition (reduction) of the increase” value in series [1] (20 mg/kg orally, ten days) was 18.6%. Further, in series [1] (setting [6]), the “inhibition of the increase in the volume of the right paw” value stood at 67.5%. Further, in series [1], the “Volume increase … left paw” value is on record as 205 ± 41. In addition, the “Volume increase … right paw” value in series [1] was 25 ± 20. The inhibition at 1 µM on human cathepsin L (M (mean of tests 1-3)) stood at 35.6%; against human cathepsin L (test n. 1), 39.6%; against human cathepsin L (test n. 2) it was 31.4%; against human cathepsin L (test n. 3), 35.8%; against human cathepsin B (M (mean of experiments 1-3)) it was 40.7%; against human cathepsin B (experiment n. 1), 43.7%. The inhibition at 1 µM at human cathepsin B (experiment n. 2) was 33.7%; on human cathepsin B (experiment n. 3), 38.5%. Also, the inhibition at 10 µM came out at 94.5% on human cathepsin L (M (mean of tests 1-3)); 92.1% against human cathepsin L (test n. 1); 96.5% against human cathepsin L (test n. 2); 94.8% against human cathepsin L (test n. 3); 94.9% at human cathepsin B (M (mean of experiments 1-3)); 98.9% at human cathepsin B (experiment n. 1). Also, the inhibition at 10 µM against human cathepsin B (experiment n. 2) stood at 98.2%; at human cathepsin B (experiment n. 3) it was 87.7%. Further, the inhibition at 5 µM against human cathepsin B (M (mean of experiments 1-3)) worked out at 70.1%; on human cathepsin B (experiment n. 1), 68.5%; against human cathepsin B (experiment n. 2) it was 65.8%; on human cathepsin B (experiment n. 3), 76%. Also, the Metaphases with aberrations in series [3] (50 μg/ml, 100 total metaphases, N.S.) is on record as 2; in series [3] (100 μg/ml, 100 total metaphases, N.S.), 4; in series [3] (150 μg/ml, 100 total metaphases, N.S.) it was 8; in series [3] (200 μg/ml, 100 total metaphases, N.S.), 8; in series [3] (250 μg/ml, 100 total metaphases, N.S.), 6. Moreover, the “induction of chromosomal aberrations (in words)” value in series [3] (50-250 μg/ml) is recorded as “induces no chromosomal aberrations”.

Regarding `O=C1c2cccc(S(=O)(=O)O)c2C(=O)c2cccc(S(=O)(=O)O)c21` [1,5-anthraquinonedisulfonic acid, Anthraquinone-1,5-disulfonic acid], the inhibition at 1 µM is 8.1% on human cathepsin L (M (mean of tests 1-3)); 10.5% against human cathepsin L (test n. 1); 8.4% against human cathepsin L (test n. 2); 5.5% on human cathepsin L (test n. 3); 3.4% at human cathepsin B (setting [7]); 4.1% at human cathepsin B (setting [8]). The inhibition at 1 µM at human cathepsin B (setting [9]) is 3.6%; at human cathepsin B (setting [10]) it was 2.5%. The inhibition at 10 µM against human cathepsin L (M (mean of tests 1-3)) is 54.3%; on human cathepsin L (test n. 1) it was 48.6%; at human cathepsin L (test n. 2), 60.5%; against human cathepsin L (test n. 3) it was 53.9%; at human cathepsin B (setting [7]) it was 44.4%; on human cathepsin B (setting [8]) it was 55.1%. Besides, the inhibition at 10 µM at human cathepsin B (setting [9]) is 36.6%; at human cathepsin B (setting [10]) it was 41.6%. Further, the inhibition at 5 µM on human cathepsin B (setting [7]) is 9.6%; at human cathepsin B (setting [8]) it was 10.3%; on human cathepsin B (setting [9]) it was 7.2%; on human cathepsin B (setting [10]), 11.4%. Moreover, the “% Reduction” value in series [2] was 4%.

For orientation: inhibition means the share of the control response that was lost under treatment.
